≈ marks a conversion by molar mass, not a printed value.

System in the first data set: not listed separately
The data set can be described thus: Solubility in water. Format: physicochemical.
As to `c1ccc(CN2CCC(Nc3ccc4[nH]ncc4c3)CC2)cc1`, the solubility (commonly how much of the substance goes into solution per volume) is 794 µg/mL (≈ 2590 µM). Still for that read-out and setting: as for `O=C(NCc1c(F)cccc1F)Nc1ccc2[nH]ncc2c1`, the figure is 5 µg/mL (≈ 16.5 µM).

System in a further data set: not listed separately
The data set can be described thus: Solubility in 50 mM KH2PO4 containing 24 mM NaOH. It is filed as physicochemical.
Turning to `c1ccc(CN2CCC(Nc3ccc4[nH]ncc4c3)CC2)cc1`, the solubility came to 495 µg/mL (≈ 1620 µM). As for `O=C(NCc1c(F)cccc1F)Nc1ccc2[nH]ncc2c1`, the solubility is less than 1 µg/mL.

The next data set concerns the target Rho-associated protein kinase (Homo sapiens, UniProt O75116+Q13464).
Take `CCCN1CCCC(Nc2ccc3[nH]ncc3c2)C1` (stereo not drawn): the IC50 (commonly the concentration that gives 50% inhibition) turned out to be 780 nM. `O=C(NC1CCN(Cc2ccccc2)CC1)c1ccc2[nH]ncc2c1` gave an IC50 of 540 nM.

Consider `c1ccc(CN[C@H]2CC[C@H](Nc3ccc4[nH]ncc4c3)CC2)cc1`, for which the IC50 turned out to be 520 nM. On to `CN(CCNc1ccc2[nH]ncc2c1)Cc1ccccc1`, for which the IC50 is given as 7900 nM. On the same count and under the same terms, under `Fc1ccc(CN2CCC(CNc3ccc4[nH]ncc4c3)CC2)cc1` stands more than 10000 nM. Molecule `Cn1ncc2cc(NC3CCCN(Cc4ccccc4)C3)ccc21` (stereo not drawn) registered an IC50 of more than 10000 nM. The same measure, in the same setting: under `c1c[nH]c(CN2CCCC(Nc3ccc4[nH]ncc4c3)C2)c1` (stereo not drawn) stands 11 nM.

For `c1cc(CN2CCCC(Nc3ccc4[nH]ncc4c3)C2)c[nH]1` (stereo not drawn), the IC50 is given as more than 1000 nM. On the same count and under the same terms, under `Fc1ccc(CN2CCCC(Nc3ccc4[nH]ncc4c3)C2)cc1` (stereo not drawn) stands 25 nM; under `Fc1ccc(CN2CCCC(Nc3ccc4[nH]ncc4c3)C2)cc1F` (stereo not drawn), 10 nM. The same measure, in the same setting: under `Nc1ccc(CN2CCCC(Nc3ccc4[nH]ncc4c3)C2)cc1` (stereo not drawn) stands 10 nM; under `Clc1ccccc1CN1CCC(Nc2ccc3[nH]ncc3c2)CC1`, 440 nM; under `Clc1cccc(CN2CCC(Nc3ccc4[nH]ncc4c3)CC2)c1`, 290 nM. Molecule `c1ccc(CN2CCCC(Nc3ccc4[nH]ncc4c3)C2)nc1` (stereo not drawn) registered an IC50 of 240 nM. Molecule `c1cncc(CN2CCCC(Nc3ccc4[nH]ncc4c3)C2)c1` (stereo not drawn) returned an IC50 of 72 nM. On the same count and under the same terms, as for `c1ccc(CN2CCCC(Nc3ccc4[nH]ncc4c3)C2)cc1` (stereo not drawn), the figure is 20 nM. As to `O=C(NCc1ccc(Cl)cc1Cl)Nc1ccc2[nH]ncc2c1`, the IC50 worked out at 220 nM. The molecule `c1coc(CN2CCCC(Nc3ccc4[nH]ncc4c3)C2)c1` (stereo not drawn) gave an IC50 of 65 nM.

For the molecule `c1cc(CN2CCCC(Nc3ccc4[nH]ncc4c3)C2)co1` (stereo not drawn), the IC50 is recorded as 180 nM. Same read-out and setting: under `O=C(NCc1c(Cl)cccc1Cl)Nc1ccc2[nH]ncc2c1` stands 20 nM; under `Clc1ccc(CN2CCC(Nc3ccc4[nH]ncc4c3)CC2)cc1`, 290 nM. Consider `O=C(Nc1ccc2[nH]ncc2c1)NC1CCN(Cc2ccccc2)CC1`, for which the IC50 was more than 10000 nM. Same read-out and setting: under `O=C(NCc1ccccc1)Nc1ccc2[nH]ncc2c1` stands 260 nM. `c1ccc(CN2CCC(Oc3ccc4[nH]ncc4c3)CC2)cc1` registered an IC50 of 100 nM. Turning to `O=C(NCc1c(F)cccc1F)Nc1ccc2[nH]ncc2c1`, the IC50 stood at 85 nM. The same measure, in the same setting: as for `c1ccc(CN2CCCC(Oc3ccc4[nH]ncc4c3)C2)cc1` (stereo not drawn), the figure is 10 nM; as for `COc1ccc(CN2CCCC(Nc3ccc4[nH]ncc4c3)C2)cc1` (stereo not drawn), 16 nM. `Cc1n[nH]c2ccc(NC3CCCN(Cc4ccccc4)C3)cc12` (stereo not drawn): the IC50 stood at 150 nM. The molecule `c1ccc(CN2CCC(Nc3ccc4[nH]ncc4c3)C2)cc1` (stereo not drawn) returned an IC50 of 32 nM. Same read-out and setting: as for `Cc1ccc(CN2CCCC(Nc3ccc4[nH]ncc4c3)C2)cc1` (stereo not drawn), the figure is 9 nM. The same measure, in the same setting: as for `Clc1ccccc1CN1CCC(Nc2ccc3[nH]ncc3c2)C1` (stereo not drawn), the figure is 45 nM; as for `Clc1cccc(CN2CCCC(Nc3ccc4[nH]ncc4c3)C2)c1` (stereo not drawn), 19 nM; as for `COc1cc(CN2CCCC(Nc3ccc4[nH]ncc4c3)C2)cc(OC)c1` (stereo not drawn), 80 nM.

As to `O=[N+]([O-])c1ccc(CN2CCCC(Nc3ccc4[nH]ncc4c3)C2)cc1` (stereo not drawn), the IC50 is 87 nM.

As for `c1ccc(CN[C@H]2CC[C@@H](Nc3ccc4[nH]ncc4c3)CC2)cc1`, the IC50 worked out at 320 nM. The molecule `Nc1cccc(CN2CCCC(Nc3ccc4[nH]ncc4c3)C2)c1` (stereo not drawn) returned an IC50 of 35 nM.

In turn, `Clc1ccccc1CN1CCCC(Nc2ccc3[nH]ncc3c2)C1` (stereo not drawn) returned an IC50 of 13 nM. Regarding `O=C(Nc1ccc2[nH]ncc2c1)C1CCCN(Cc2ccccc2)C1` (stereo not drawn), the IC50 came to 18 nM.

`Clc1ccc(CN2CCCC(Nc3ccc4[nH]ncc4c3)C2)cc1` (stereo not drawn) came in with an IC50 of 11 nM. `O=C(Nc1ccc2[nH]ncc2c1)C1CCN(Cc2ccccc2)CC1` gave an IC50 of 136 nM. The molecule `CC(C)CCN1CCCC(Nc2ccc3[nH]ncc3c2)C1` (stereo not drawn) came in with an IC50 of 340 nM.

In turn, `Nc1ccccc1CN1CCCC(Nc2ccc3[nH]ncc3c2)C1` (stereo not drawn) registered an IC50 of 85 nM.

System in another data set: not listed separately
The experiment in a line: Solubility in 0.086N HCl containing 34 mM NaCl. It is filed as physicochemical.
Take `c1ccc(CN2CCC(Nc3ccc4[nH]ncc4c3)CC2)cc1`: the solubility worked out at 881 µg/mL (≈ 2880 µM). The same measure, in the same setting: under `O=C(NCc1c(F)cccc1F)Nc1ccc2[nH]ncc2c1` stands 5 µg/mL (≈ 16.5 µM).

These data come from ChEMBL document CHEMBL1144500, “Design and synthesis of Rho kinase inhibitors (II)” (Bioorg Med Chem, 2007).
